Results published in patent US8881823B2, “Environmentally friendly low temperature breaker systems and related methods” (Halliburton Energy Services, Inc., priority 2011, dated 2014).

Tests used:
[1] = Miscibility and pH of breaker systems in fresh water; type: physicochemical; details: breaker system in fresh water, 150° F. for 16 hours
Procedure: Several chelating agents and acids (breaker systems) were tested for their calcium carbonate dissolving capacity and miscibility in fresh water. Tests of the breaker systems were performed by adding a known volume of breaker system to a volume of brine needed to fill 100 ml in a jar. The jars were then sealed and swirled to mix the components. Samples containing 5%, 10%, or 20% v/v of chelating agents and acids were prepared. The jars were then placed in a static oven at 150° F. for 16 hours. Afterwards, miscibility of the components was observed and the pH of each mixture was tabulated.

[2] = set-up: species or system Alga; details: alga, in vivo
Procedure: (§1) GLDA was also tested for its eco-toxicological effect on various environmental subjects. In particular, the active toxicity of GLDA was measured on various organisms following OECD 201, 202 and 203 protocols.

[3] = tested on: Alga; details: Alga, in vivo, 72 h
Procedure: as §1

[4] = Active toxicity test of GLDA on Rainbow trout (OECD 203); type: in vivo, Oncorhynchus mykiss; details: rainbow trout (Oncorhynchus mykiss), in vivo, OECD 203, 96-h
Procedure: as §1

[5] = tested on: Rainbow trout (Oncorhynchus mykiss); assay: as above; type: in vivo; details: OECD 203, 96-h
Procedure: as §1

[6] = Multiple step return permeability test; details: 20% GLDA solution in 11 lb/gal sodium bromide, 16 hours soak, approximately 110° F.
Description: To simulate the performance of a breaker solution in potential downhole applications, a 20% GLDA solution in 11 lb/gal sodium bromide was used in a multiple step return permeability test on a low permeability Berea Sandstone core plug. The following procedure was used.
A 1.0″ diameter core plug was cut out of a Berea Sandstone block having low permeability (about 20% porosity). The core plug was inserted into a containment sleeve of a manual return permeameter (MRP). The pressure chamber was sealed and the temperature was maintained at approximately 110° F., while the confining pressure was at approximately 2,500 psi. Once the temperature and overburden pressure stabilized, isoparaffin solvent (“SOLTROL® 170” commercially available from Chevron Phillips Chemical Company) filtered to 0.45 micron, was produced through the core at 4 ml/min against approximately 200 psi back-pressure. […] The initial and final permeability values were calculated using Darcy's Law for linear flow: […]
Treatment simulation in the lab involved three separate steps, each step potentially causing formation damage or a reduction in permeability. […] Once the displacement of the drill-in fluid was complete, the damage caused by the previous three injection steps was evaluated by pumping of SOLTROL® 170 through the core until a constant permeability was obtained using the same procedure used for the initial permeability. […]

[7] = Active toxicity test of GLDA on Daphnia magna (OECD 202); type: in vivo; details: in vivo, OECD 202, 48-h
Procedure: as §1

[8] = tested on: Daphnia magna; assay: as above; type: in vivo; details: OECD 202, 48-h
Procedure: as §1

[9] = Initial and over time miscibility and pH in potassium formate brines; type: physicochemical; details: for After Static Aging: overnight 150° F.; for pH Final: static 16 hrs @ 150° F.
Procedure: Completion breaker solutions were to be tested at 5%, 10%, and 20% by volume concentrations in each of the brines. The initial miscibility and the miscibility after static aging overnight at 150° F. were observed. Also, the pH of the final mixes was measured. The different concentrations of the breaker solutions were prepared with fresh water and filtered through a 1.6 μm glass fiber filter prior to testing.
The tests were run by adding the appropriate volume of the test breaker (5%, 10%, or 20% by volume) to the volume of the test brine needed to total 100 ml in a 4 ounce jar, sealing it, and swirling to mix the components. Observation was noted of the compatibility of the components.

[10] = Biodegradability, OECD 301 D Closed Bottle Test
Description: The same protocol was used to test EDTA (“DISSOLVINE AM3-40” available from AkzoNobel Corporate) and sodium acetate.

[11] = Calcite dissolving capacity of breaker systems; type: physicochemical; details: 2.5 g BARACARB 5 in 50 mL test fluid, one hour
Procedure: The calcite dissolving capacity of each breaker system was determined in the following manner. A known amount of a technical grade calcium carbonate (commercially available from Halliburton under the tradename “BARACARB 5”) was dried in an oven for 2 hours. […] The solution was subsequently filtered with a 1 micron fiber glass filter paper.

[12] = 5% by volume, potassium formate brine 11.0 lb/gal
[13] = 5% by volume, potassium formate brine 12.0 lb/gal
[14] = 5% by volume, potassium formate brine 13.0 lb/gal
[15] = 10% by volume, potassium formate brine 11.0 lb/gal
[16] = 10% by volume, potassium formate brine 12.0 lb/gal
[17] = 10% by volume, potassium formate brine 13.0 lb/gal
[18] = 20% by volume, potassium formate brine 11.0 lb/gal
[19] = 20% by volume, potassium formate brine 12.0 lb/gal
[20] = 20% by volume, potassium formate brine 13.0 lb/gal

## O=C(O)CC[C@@H](C(=O)O)N(CC(=O)O)CC(=O)O [GLDA, L-glutamic acid N,N-diacetic acid]
[1]
  pH: >12
[2]
  EC50 at 72 h: > 100 µg/mL
[3]
  72-h NOEC: NOEC ≧ 100 mg/l
[4]
  LC50 at 96 h: > 100 µg/mL
[5]
  96-h NOEC: NOEC ≧ 100 mg/l
[6]
  return permeability after the breaker cleanup, % of the initial permeability: 94%
[7]
  EC50 at 48 h: > 100 µg/mL
[8]
  48-h NOEC: NOEC ≧ 100 mg/l
[9]; [12]
  Initial Observation: Clear, totally soluble
  After Static Aging: Clear, totally soluble
  pH Final: 12.7
[9]; [13]
  Initial Observation: Clear, totally soluble
  After Static Aging: Clear, totally soluble
  pH Final: 13.3
[9]; [14]
  Initial Observation: Clear, totally soluble
  After Static Aging: Clear, totally soluble
  pH Final: 13.8
[9]; [15]
  Initial Observation: Clear, totally soluble
  After Static Aging: Clear, totally soluble
  pH Final: 13.3
[9]; [16]
  Initial Observation: Clear, totally soluble
  After Static Aging: Clear, totally soluble
  pH Final: 14.4
[9]; [17]
  Initial Observation: Clear, totally soluble
  After Static Aging: Clear, totally soluble
  pH Final: 15.0
[9]; [18]
  Initial Observation: Clear, totally soluble
  After Static Aging: Clear, totally soluble
  pH Final: 13.7
[9]; [19]
  Initial Observation: Clear, totally soluble
  After Static Aging: Clear, totally soluble
  pH Final: 14.7
[9]; [20]
  Initial Observation: Clear, totally soluble
  After Static Aging: Clear, totally soluble
  pH Final: 15.4
[9]; tested concentrations, 11.0-13.0 lb/gal brines
  solubility / miscibility in the potassium formate brines: soluble in the tested concentrations of the potassium formate brine
[10]
  Biodegradability: Easy
  biodegradability (in words): readily biodegradable
[11]
  % Carbonate Complexed or Dissolved: 19.6%
  Final Weight of BARACARB 5, g: 2.01 g
